# Measured values taken from patent US9433603B2, “Use of 3-(R)-[3-(2-methoxyphenylthio)-2-(S)-methylpropyl]amino-3,4-dihydro-2H-1,5-benzoxathiepine for preventing and/or treating cardiotoxic effects caused by chemotherapy and/or radiation” (PIERRE FABRE MEDICAMENT, priority 2011, dated 2016).
# Tests used:
# rat cardiomyocytes = experiment: Rat cardiomyocyte culture with or without doxorubicin, cell suffering by LDH assay; type: cell-based; conditions: 48 hours
# Procedure: The effects of 3-(R)-[3-(2-methoxyphenylthio)-2-(S)-methyl-propyl]amino-3,4-dihydro-2H-1,5-benzoxathiepine were assessed in the following cell model: rat cardiomyocytes were placed in culture either in the presence or in the absence of doxorubicin. After 48 hours, cell suffering was quantified by assay of the concentration of lactate dehydrogenase (LDH); LDH is […].
# [1] = Cytotoxicity of the compound itself (statement, no method)
# [2] = Effect on normal functioning of the cardiovascular system (earlier work of the inventors); conditions: even in strong concentrations
SMILES,"Effect on viability of cardiomyocytes (LDH) (rat cardiomyocytes; doxorubicin at 1 and 10 μM, comparable with Triton X-100)","Effect on the toxic effects of doxorubicin / viability of cardiomyocytes (LDH) (rat cardiomyocytes; compound at 10 μM, with doxorubicin)",Cytotoxicity [1],Effect on normal functioning of the cardiovascular system [2]
"COc1cccc2c1C(=O)c1c(O)c3c(c(O)c1C2=O)C[C@@](O)(C(=O)CO)C[C@@H]3O[C@H]1C[C@H](N)[C@H](O)[C@H](C)O1 [doxorubicin, reference compound]",significantly affects the viability of cardiomyocytes,,,
"COc1ccccc1SC[C@@H](C)CN[C@@H]1COc2ccccc2SC1 [3-(R)-[3-(2-methoxyphenylthio)-2-(S)-methyl-propyl]amino-3,4-dihydro-2H-1,5-benzoxathiepine]",,significantly reduces the toxic effects of doxorubicin,not cytotoxic,does not affect the normal functioning of the cardiovascular system
